Results on 5 compounds are retold here after patent publication EP4810052A2, “HCRHR2 SELECTIVE POLYPEPTIDES” (Gubra A/S, priority 2023, dated 2026).

In one test the target is T1, hCRHR2 (Homo sapiens, UniProt Q13324).
T1 sequence (Q13324 1-411): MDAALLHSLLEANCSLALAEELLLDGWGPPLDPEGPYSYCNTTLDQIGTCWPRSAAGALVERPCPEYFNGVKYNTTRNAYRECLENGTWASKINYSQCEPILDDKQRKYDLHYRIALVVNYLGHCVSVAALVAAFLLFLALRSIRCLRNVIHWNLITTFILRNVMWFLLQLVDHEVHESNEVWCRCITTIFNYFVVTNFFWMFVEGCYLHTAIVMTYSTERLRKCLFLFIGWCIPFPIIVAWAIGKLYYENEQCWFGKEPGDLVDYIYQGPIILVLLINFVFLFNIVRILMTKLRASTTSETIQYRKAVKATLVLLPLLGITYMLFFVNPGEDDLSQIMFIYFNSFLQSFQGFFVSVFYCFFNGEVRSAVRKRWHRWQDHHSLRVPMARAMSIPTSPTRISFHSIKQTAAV
The test is described as follows: HTRF cAMP assay, determination of hCRHR2 potency (peptide libraries 5 conc., purified peptides 11 conc.). The class given is cell-based. The procedure, abridged:
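Agonist peptides are added to suspended, freshly thawed CHO-K1 cells that stably carry the human receptor. Intracellular cAMP competes with d2-cAMP for a cryptate-tagged antibody, lowering the FRET signal. A variable-slope sigmoid curve is fitted to obtain EC50.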
On the technique in general: Time-resolved FRET reads energy transfer from a long-lived donor to a nearby acceptor.

For another test, the target named is T2, hCRHR1 (Homo sapiens, UniProt P34998).
T2 sequence (P34998 24-415): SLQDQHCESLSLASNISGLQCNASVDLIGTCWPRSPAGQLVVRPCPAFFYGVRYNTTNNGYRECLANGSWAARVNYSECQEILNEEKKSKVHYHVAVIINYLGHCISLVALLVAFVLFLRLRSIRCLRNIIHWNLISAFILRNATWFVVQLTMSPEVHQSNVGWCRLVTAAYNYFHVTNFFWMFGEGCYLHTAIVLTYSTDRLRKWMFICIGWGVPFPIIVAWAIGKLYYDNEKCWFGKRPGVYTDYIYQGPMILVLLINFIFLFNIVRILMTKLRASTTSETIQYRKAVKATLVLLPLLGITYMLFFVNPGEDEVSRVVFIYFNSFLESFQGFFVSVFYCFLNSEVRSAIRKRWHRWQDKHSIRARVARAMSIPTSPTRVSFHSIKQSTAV
The test is described as follows: HTRF cAMP assay, determination of hCRHR1 potency (peptide libraries 5 conc., purified peptides 11 conc.). It counts as cell-based. In short, it runs like this: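 CHO-K1 cells stably expressing human CRHR1, thawed from frozen stocks just before use, were stimulated in suspension with agonist peptides. cAMP was measured by HTRF competitive immunoassay (cryptate anti-cAMP antibody vs d2-cAMP).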

Setting [1] is: library peptides, matched molecular pairs L vs Nle in position X^38, read-out: Potency hCRHR2 pEC50 (converted).
[2] abbreviates: library peptides, matched molecular pairs L vs Nle in position X^38, read-out: Potency hCRHR1 pEC50 (converted).
Setting [3] is: Table 4, library peptides having X^38 = Nle, read-out: hCRHR2 pEC50 (converted).
Where [4] appears, read: Table 4, library peptides having X^38 = Nle, read-out: hCRHR1 pEC50 (converted).

Read-outs that look alike come from different tables or passages of the source. Starred links: 1 amine or outer side, 2 acyl side, 3 side chain; linkers in the order of their positions; H or OH if unused. Non-standard residues stand in square brackets, D forms with d. Residues, ends and D or L forms follow the SMILES beside them. Groups on a side chain read outwards from the residue. *: point of attachment. C20 diacid = O=C(O)CCCCCCCCCCCCCCCCCCC(=O)*; Pro(cis-4-F) = O=C(O)[C@@H]1C[C@H](F)CN1; γGlu = O=C(O)[C@H](CCC(=O)[*:2])N[*:1]; NMeI = CC[C@H](C)[C@H](NC)C(=O)O; Nle = CCCC[C@H](N)C(=O)O; AEEA = NCCOCCOCC(=O)O; Aib = CC(C)(N)C(=O)O

`CCCC[C@H](NC(=O)[C@@H](NC(=O)[C@H](CCC(=O)O)NC(=O)[C@H](C)NC(=O)[C@H](CC(N)=O)NC(=O)[C@@H](NC(=O)[C@H](CCCCNC(=O)COCCOCCNC(=O)COCCOCCNC(=O)CC[C@H](NC(=O)CC[C@H](NC(=O)CCCCCCCCCCCCCCCCCCC(=O)O)C(=O)O)C(=O)O)NC(=O)[C@H](C)NC(=O)[C@H](CCC(N)=O)NC(=O)[C@H](CCC(N)=O)NC(=O)[C@H](CCCNC(=N)N)NC(=O)[C@H](CC(C)C)NC(=O)[C@H](C)NC(=O)[C@H](CCC(=O)O)NC(=O)[C@H](C)NC(=O)[C@H](CCCNC(=N)N)NC(=O)[C@H](C)NC(=O)[C@H](CCC(N)=O)NC(=O)[C@H](CCC(=O)O)NC(=O)[C@H](CC(C)C)NC(=O)[C@H](CC(C)C)NC(=O)[C@@H](NC(=O)[C@H](CCC(N)=O)NC(=O)[C@H](CC(C)C)NC(=O)[C@H](CC(C)C)NC(=O)CNC(=O)[C@@H](NC(=O)[C@@H]1CCCN1C(=O)[C@@H](NC(=O)[C@H](CC(=O)O)NC(=O)[C@H](CC(C)C)NC(=O)[C@H](CO)NC(=O)[C@H](CC(C)C)NC(=O)[C@@H](NC(=O)[C@@H](N)[C@@H](C)CC)C(C)C)C(C)C)[C@@H](C)CC)[C@@H](C)CC)[C@@H](C)O)[C@@H](C)CC)C(=O)N[C@@H](C)C(=O)N[C@@H](CCC(=O)O)C(=O)N[C@H](C(N)=O)C(C)C` [compound 59] (H-IVLSLDVPIGLLQILLEQARAEALRQQAK([AEEA-AEEA-γGlu-γGlu-C20 diacid])TNAEI[Nle]AEV-NH2): the EC50 is 0.158 nM on hCRHR2 (setting [1]) and 5.01 nM at hCRHR1 (setting [2]).

As for `CC[C@H](C)[C@H](N)C(=O)N[C@H](C(=O)N[C@@H](CC(C)C)C(=O)N[C@@H](CO)C(=O)N[C@@H](CC(C)C)C(=O)N[C@@H](CC(=O)O)C(=O)N[C@H](C(=O)N1C[C@@H](F)C[C@H]1C(=O)N[C@H](C(=O)NCC(=O)N[C@@H](CC(C)C)C(=O)N[C@@H](CC(C)C)C(=O)N[C@@H](CCC(N)=O)C(=O)N[C@H](C(=O)N[C@@H](CC(C)C)C(=O)N[C@@H](CC(C)C)C(=O)N[C@H](C(=O)N[C@@H](CCC(N)=O)C(=O)N[C@@H](C)C(=O)N[C@@H](CCCNC(=N)N)C(=O)N[C@@H](C)C(=O)N[C@@H](CCCNC(=N)N)C(=O)N[C@@H](C)C(=O)N[C@@H](C)C(=O)N[C@@H](CCCNC(=N)N)C(=O)N[C@@H](CCC(=O)O)C(=O)N[C@@H](CCC(N)=O)C(=O)N[C@@H](C)C(=O)N[C@@H](CCCCNC(=O)COCCOCCNC(=O)COCCOCCNC(=O)CC[C@H](NC(=O)CC[C@H](NC(=O)CCCCCCCCCCCCCCCCCCC(=O)O)C(=O)O)C(=O)O)C(=O)N[C@H](C(=O)N[C@@H](CC(N)=O)C(=O)N[C@@H](C)C(=O)N[C@@H](CCC(=O)O)C(=O)N[C@H](C(=O)N[C@@H](CC(C)C)C(=O)N[C@@H](C)C(=O)N[C@@H](CCC(=O)O)C(=O)N[C@H](C(N)=O)C(C)C)[C@@H](C)CC)[C@@H](C)O)[C@@H](C)O)[C@@H](C)CC)[C@@H](C)CC)C(C)C)C(C)C` [compound 80] (H-IVLSLDV[Pro(cis-4-F)]IGLLQILLTQARARAAREQAK([AEEA-AEEA-γGlu-γGlu-C20 diacid])TNAEILAEV-NH2), the EC50 at hCRHR2 (setting [1]) was 1 nM; on hCRHR1 (setting [2]), 25100 nM.

On to `CCCC[C@H](NC(=O)[C@@H](NC(=O)[C@H](CCC(=O)O)NC(=O)C(C)(C)NC(=O)[C@H](CC(N)=O)NC(=O)[C@@H](NC(=O)[C@H](CCCCNC(=O)COCCOCCNC(=O)COCCOCCNC(=O)CC[C@H](NC(=O)CC[C@H](NC(=O)CCCCCCCCCCCCCCCCCCC(=O)O)C(=O)O)C(=O)O)NC(=O)[C@H](C)NC(=O)[C@H](CCC(N)=O)NC(=O)[C@H](CCC(=O)O)NC(=O)[C@H](CCCNC(=N)N)NC(=O)[C@H](C)NC(=O)[C@H](C)NC(=O)[C@H](CCCNC(=N)N)NC(=O)[C@H](C)NC(=O)[C@H](CCCNC(=N)N)NC(=O)[C@H](C)NC(=O)[C@H](CCC(N)=O)NC(=O)[C@H](CCCCN)NC(=O)[C@H](CC(C)C)NC(=O)[C@H](CC(C)C)NC(=O)[C@@H](NC(=O)[C@H](CCC(N)=O)NC(=O)[C@H](CC(C)C)NC(=O)[C@H](CC(C)C)NC(=O)CNC(=O)[C@@H](NC(=O)[C@@H]1CCCN1C(=O)[C@@H](NC(=O)[C@H](CC(=O)O)NC(=O)[C@H](CC(C)C)NC(=O)[C@H](CO)NC(=O)[C@H](CC(C)C)NC(=O)[C@@H](NC(=O)[C@@H](NC)[C@@H](C)CC)C(C)C)C(C)C)[C@@H](C)CC)[C@@H](C)CC)[C@@H](C)O)[C@@H](C)CC)C(=O)N[C@@H](C)C(=O)N[C@@H](CCC(=O)O)C(=O)N[C@H](C(N)=O)C(C)C` [compound 230] (H-[NMeI]VLSLDVPIGLLQILLKQARARAAREQAK([AEEA-AEEA-γGlu-γGlu-C20 diacid])TN[Aib]EI[Nle]AEV-NH2), for which the EC50 at hCRHR2 (setting [3]) is 0.0501 nM; at hCRHR1 (setting [4]), 31600 nM.

On to `CCCC[C@H](NC(=O)[C@@H](NC(=O)[C@H](CCC(=O)O)NC(=O)C(C)(C)NC(=O)[C@H](CC(N)=O)NC(=O)[C@@H](NC(=O)[C@H](CCCCNC(=O)COCCOCCNC(=O)COCCOCCNC(=O)CC[C@H](NC(=O)CC[C@H](NC(=O)CCCCCCCCCCCCCCCCCCC(=O)O)C(=O)O)C(=O)O)NC(=O)[C@H](C)NC(=O)[C@H](CCC(N)=O)NC(=O)[C@H](CCC(=O)O)NC(=O)[C@H](CCCNC(=N)N)NC(=O)[C@H](C)NC(=O)[C@H](C)NC(=O)[C@H](CCCNC(=N)N)NC(=O)[C@H](C)NC(=O)[C@H](CCCNC(=N)N)NC(=O)[C@H](C)NC(=O)[C@H](CCC(N)=O)NC(=O)[C@H](C)NC(=O)[C@H](CC(C)C)NC(=O)[C@H](CC(C)C)NC(=O)[C@@H](NC(=O)[C@H](CCC(N)=O)NC(=O)[C@H](CC(C)C)NC(=O)[C@H](CC(C)C)NC(=O)CNC(=O)[C@@H](NC(=O)[C@@H]1CCCN1C(=O)[C@@H](NC(=O)[C@H](CC(=O)O)NC(=O)[C@H](CC(C)C)NC(=O)[C@H](CO)NC(=O)[C@H](CC(C)C)NC(=O)[C@@H](NC(=O)[C@@H](NC)[C@@H](C)CC)C(C)C)C(C)C)[C@@H](C)CC)[C@@H](C)CC)[C@@H](C)O)[C@@H](C)CC)C(=O)N[C@@H](C)C(=O)N[C@@H](CCC(=O)O)C(=O)N[C@H](C(N)=O)C(C)C` [compound 196] (H-[NMeI]VLSLDVPIGLLQILLAQARARAAREQAK([AEEA-AEEA-γGlu-γGlu-C20 diacid])TN[Aib]EI[Nle]AEV-NH2), for which the EC50 on hCRHR2 (setting [3]) is 0.0316 nM; at hCRHR1 (setting [4]), 1000 nM.

For `CC[C@H](C)[C@H](N)C(=O)N[C@H](C(=O)N[C@@H](CC(C)C)C(=O)N[C@@H](CO)C(=O)N[C@@H](CC(C)C)C(=O)N[C@@H](CC(=O)O)C(=O)N[C@H](C(=O)N1CCC[C@H]1C(=O)N[C@H](C(=O)NCC(=O)N[C@@H](CC(C)C)C(=O)N[C@@H](CC(C)C)C(=O)N[C@@H](CCC(N)=O)C(=O)N[C@H](C(=O)N[C@@H](CC(C)C)C(=O)N[C@@H](CC(C)C)C(=O)N[C@@H](CCC(=O)O)C(=O)N[C@@H](CCC(N)=O)C(=O)N[C@@H](C)C(=O)N[C@@H](CCCNC(=N)N)C(=O)N[C@@H](C)C(=O)N[C@@H](CCCNC(=N)N)C(=O)N[C@H](C(=O)N[C@@H](C)C(=O)N[C@@H](CCCNC(=N)N)C(=O)N[C@@H](CCC(=O)O)C(=O)N[C@@H](CCC(N)=O)C(=O)N[C@@H](C)C(=O)N[C@@H](CCCCNC(=O)COCCOCCNC(=O)COCCOCCNC(=O)CC[C@H](NC(=O)CC[C@H](NC(=O)CCCCCCCCCCCCCCCCCCC(=O)O)C(=O)O)C(=O)O)C(=O)N[C@H](C(=O)N[C@@H](CC(N)=O)C(=O)N[C@@H](C)C(=O)N[C@@H](CCC(=O)O)C(=O)N[C@H](C(=O)N[C@@H](CC(C)C)C(=O)N[C@@H](C)C(=O)N[C@@H](CCC(=O)O)C(=O)N[C@H](C(N)=O)C(C)C)[C@@H](C)CC)[C@@H](C)O)C(C)C)[C@@H](C)CC)[C@@H](C)CC)C(C)C)C(C)C` [compound 90] (H-IVLSLDVPIGLLQILLEQARARVAREQAK([AEEA-AEEA-γGlu-γGlu-C20 diacid])TNAEILAEV-NH2), the results for the EC50 on hCRHR2 (setting [1]) and on hCRHR1 (setting [2]) were 1 nM and 20000 nM, respectively.
